Patent US20260183311A1, “COMPOUNDS DERIVED FROM STEROLS FOR THE TREATMENT OF A DISEASE ASSOCIATED WITH A MITOCHONDRIAL DEFICIT” (DENDROGENIX, priority 2022, published 2026)
“Also recorded” adds a separate entry of the source.

Columns and labels:
[1] = test system: hippocampal neurons; test: Mitochondrial stress in hippocampal neurons treated with peptide Aβ 1-42; assay type: cell-based; details: 1 nM, FIG. 7
Protocol: The mitochondrial effects of compound DX243 were tested in a model of hippocampal neurons treated with peptide Aβ 1-42, this peptide inducing mitochondrial stress (represented by a reduction in mitochondrial surface area).

[2] = test system: C2C12; test: Test of mitochondrial dynamics (Mitotracker labeling) on C2C12 cell line; assay type: cell-based; details: 24 h, different concentrations, FIG. 3
Protocol: (§1) A human neuroblastoma cell line (SHSY5y) and also a myoblast cell line (C2C12) were cultured in DMEM™ medium (Ref. 21068028 ThermoFisher Scientific). Once in culture, these two cell lines were treated for 24 h with different concentrations of the compound DX243. A series of images was taken, labeling with Mitotracker™ (Ref. M7512, ThermoFisher Scientific), which highlights and visualizes the mitochondria present in these cells, and enables quantification of their amount.

[3] = test system: Neuro-2a cells; test: Test of relative metabolic activity (MTT) on Neuro-2a cells under normal conditions; assay type: cell-based, mouse; details: physiological conditions; 24 h; two concentrations; FIG. 2A
Protocol: (§2) A test based on the metabolic activity of the neurons was performed to evaluate the effect of the compounds of formula (I) on this metabolic activity. This test is based on the use of the tetrazolium salt MTT (3-(4,5-dimethylthiazol-2-yl)-2,5-diphenyltetrazolium bromide). Tetrazolium is reduced by mitochondrial succinate dehydrogenase in active live cells to formazan, a purple-colored precipitate. The amount of precipitate formed is proportional to the metabolic activity present in the culture. Thus, spectroscopic assay of the optical density at 550 nm makes it possible to determine the relative amount of metabolic activity and consequently the mitochondrial activity. This test on cortical neuron cultures was performed with different compounds in reference to Table 2 (DX101, DX243, DX244, DX245, DX249, DX301, DX302 and DX401) used at the same concentration (100 nM).
The same test described in Example 1 was performed on Neuro-2a cells—a mouse neuroblastoma cell line. Under physiological conditions, once cultured and at about 50% confluence, Neuro-2a cells were placed in contact for 24 h with two concentrations of the compounds DX243 and DX245.

[4] = test system: dopaminergic neurons; test: Mitochondrial dynamics (mitochondrial mass) in dopaminergic neurons treated with MPP+; assay type: cell-based, rat; details: MPP+ 48 h; different concentrations during MPP+ and 48 h after removal; FIG. 5
Protocol: (§3) The mitochondrial effects of compound DX243 were tested in a model of dopaminergic neurons treated with MPP+ (1-methyl-4-phenylpyridinium), a mitochondrial toxin that increases mitochondrial stress and reduces the number of mitochondria. MPP+ is known for its deleterious effects on mitochondria (increased mitochondrial stress measured by the amount of cytochrome C, reduced mitochondrial number measured by means of the Mitotracker test). Dopaminergic neurons were obtained from microdissection of the midbrain of rat embryos cultured with Neurobasal™ Medium (Ref. 21103049 ThermoFisher Scientific) supplemented with B27 supplement 50× (Ref. 17504044 ThermoFisher Scientific), penicillin/streptomycin, L-glutamine and also BDNF (brain-derived neurotrophic factor) and GDNF (glial cell-derived neurotrophic factor).
(§4) These neurons were cultured for 5 days and then treated for 48 h with MPP+. These neurons were also exposed to different concentrations of the compound DX243 during the 48 h of MPP+ treatment, and also 48 h after MPP+ removal.

[5] = test system: mitochondrial fission gene drp1; test: Inhibition of mitochondrial fission on cochlear explants (qRT-PCR); assay type: cell-based, mice; details: 100 nM; 24 h; relative to untreated cochleae; FIG. 4
Protocol: A cochlear explant model was developed. To obtain cochleae, the organ of hearing, in culture, cochleae from 3-day-old mice were microdissected. These cochleae were then placed in DMEM medium with addition of glucose (0.5%), N1 (0.5%), insulin (0.25%) and penicillin (0.1%), for 24 h. 100 nM of the compound DX243 were then added to this culture medium for 24 h. The cochleae were then recovered and the RNA extracted therefrom, so as to be able to analyze the modulation of several genes following treatment with the compound DX243.

[6] = test system: dopaminergic neurons; test: Mitochondrial stress in dopaminergic neurons treated with MPP+; assay type: cell-based, rat; details: 10 nM; FIG. 6
Protocol: as §3, §4

[7] = test system: SHSY5y; test: Test of mitochondrial dynamics (Mitotracker labeling) on SHSY5Y cell line; assay type: cell-based, human; details: 24 h, different concentrations, FIG. 3
Protocol: as §1

[8] = test system: Neuro-2a cells; test: Test of metabolic activity (MTT) on Neuro-2a cells after ethanol (EtOH) intoxication; assay type: cell-based, mouse; details: for metabolic activity after EtOH intoxication relative to untreated cells (MTT): 24 h treatment with 100 nM, EtOH 200 mM and 500 mM, FIG. 2B
Protocol: as §2
The same test described in Example 1 was performed on Neuro-2a cells—a mouse neuroblastoma cell line. It was shown that 24 h of intoxication with ethanol (EtOH) at high concentration (500 mM) in this cell line reduced the metabolic activity of these cells (χ=P value <0.0001 relative to the control).

[9] = test system: Neuro-2a cells; test: MitoTracker study of mitochondria in Neuro-2a cells after ethanol intoxication; assay type: cell-based, mouse; details: after 24 h of ethanol intoxication (500 mm); FIG. 2C

SMILES	mitochondrial surface area [1]	mitochondrial amount (mass), Mitotracker labeling [2]	metabolic activity of Neuro-2a cells (MTT) [3]	mitochondrial mass [4]	expression of drp1 mRNA (qRT-PCR) [5]	mitochondrial stress engendered by MPP+ treatment [6]	mitochondrial amount (mass), Mitotracker labeling [7]	metabolic activity after EtOH intoxication (MTT) ([8]; 24 h EtOH 500 mM, 24 h treatment with 1 nM)	metabolic activity after EtOH intoxication relative to untreated cells (MTT) [8]	mitochondrial surface area (MitoTracker) [9]
CC(C)CCC[C@@H](C)[C@H]1CC[C@H]2[C@@H]3C[C@@H](NCCCNCCCCN)[C@@]4(O)C[C@@H](O)CC[C@]4(C)[C@H]3CC[C@]12C [DX243, 5α-hydroxy-6β-[3-(4-aminobutylamino)propylamino]cholestan-3β-ol]	restoring this decrease in mitochondrial surface area	increase in mitochondrial amount (mass)	increase in the metabolic activity	increasing and restoring mitochondrial mass	reduction in drp1 mRNA; also recorded: inhibition of expression	reduction in mitochondrial stress	increase in mitochondrial amount (mass)	partially recovered	significantly greater metabolic activity	increase in mitochondrial surface area
CC(C)CCCC(C)[C@H]1CCC2C3C[C@@H](NCCCCNCCCN)[C@@]4(O)C[C@@H](O)CC[C@]4(C)C3CC[C@@]21C (stereo partly drawn) [DX245]	–	–	increase in the metabolic activity	–	–	–	–	–	significantly greater metabolic activity	–
